Data from paper PMC9226124, “Macrocycle-stabilization of its interaction with 14-3-3 increases plasma membrane localization and activity of CFTR” (Nature Communications, 2022).
Several values for one entry are separate records, joined by “and”; a condition that tells them apart may be missing. Equal entries are not always repeated.

Experiments:
14-3-3β/p53 peptide = target: T1, 14-3-3β/p53 peptide (Homo sapiens, UniProt P31946); assay: FP assay of 14-3-3 partner protein peptide, p53; format: binding; conditions: CY007424 100 μM
T1 construct: His6 (cleaved yes); made in house
T1 sequence (P31946 1-246): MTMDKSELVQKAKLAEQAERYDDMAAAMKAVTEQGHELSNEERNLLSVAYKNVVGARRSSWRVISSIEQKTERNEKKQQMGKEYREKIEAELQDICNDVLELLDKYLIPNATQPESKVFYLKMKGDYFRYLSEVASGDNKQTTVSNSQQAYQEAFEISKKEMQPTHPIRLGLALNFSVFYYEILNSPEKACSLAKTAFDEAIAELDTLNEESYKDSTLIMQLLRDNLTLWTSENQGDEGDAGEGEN
Description: The FITC-labeled peptides were dissolved in FP buffer (10 mM HEPES pH 7.4, 150 mM NaCl, 0.1% Tween20, 1 mg/mL BSA) to a final concentration of 100 nM or 10 nM. For the dose-response assays, a 14-3-3β concentration of 10 μM was used while titrating the compounds in a two-times dilution series and, for the other assays, a dilution series of 14-3-3β was made with constant concentration of compound. The dilution series were made in 384 Corning Black Round Bottom well plates and their polarization was measured with a Tecan Infinite F500 plate reader (ex. = 485 nm, em. = 535 nm). The method of fitting of the curves was: “log(agonist) vs. response – Variable slope (four parameters)” from GraphPad Prism. The equation is Y = Bottom + (Top-Bottom)/(1 + 10^((LogEC50-X)*HillSlope)).
Supplementary Figure 2. Stabilization of the interaction between 14-3-3β and a collection of different 14-3-3 partner protein peptides by CY00742 4. […] Background polarization was subtracted from all values, n=3 technical replicates. Source data are provided as a Source Data file.
(1 picture or pasted object on this page, not shown here)

[1] = target: T2, (Homo sapiens, UniProt P13569+P31946); assay: FP assay, 14-3-3β titration at constant compound concentration (apparent KD); format: binding; conditions: FC 100 uM
T2 construct: His6 (cleaved yes); made in house; peptide synthetic
T2 sequence (P13569 747-774 limits assumed, one chain of several): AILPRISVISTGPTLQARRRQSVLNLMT

N=C(N)NCCCC1NCc2ccccc2Sc2ccccc2CNC(=O)C(Cc2ccc(O)cc2)NC(=O)C(CCCN)NC1=O (stereo not drawn) [CY007424]
FP signal (14-3-3β/p53 peptide; 14-3-3β 59.6 pM): 4 and 3 | FP signal (14-3-3β/p53 peptide; 14-3-3β 119.2 pM): 4 and 3 | FP signal (14-3-3β/p53 peptide; 14-3-3β 3.8147e-9 M): 4 and 7 | FP signal (14-3-3β/p53 peptide; 14-3-3β 7.62939e-9 M): 7 and 6 and 4 | FP signal (14-3-3β/p53 peptide; 14-3-3β 1.52588e-8 M): 5 and 3 and 4 | FP signal (14-3-3β/p53 peptide; 14-3-3β 3.05176e-8 M): 3 and 5 and 4 | FP signal (14-3-3β/p53 peptide; 14-3-3β 6.10352e-8 M): 10 and 9 | FP signal (14-3-3β/p53 peptide; 14-3-3β 1.2207e-7 M): 13 and 15 | FP signal (14-3-3β/p53 peptide; 14-3-3β 2.44141e-7 M): 15 and 18 | FP signal (14-3-3β/p53 peptide; 14-3-3β 4.88281e-7 M): 20 and 24 and 21 | FP signal (14-3-3β/p53 peptide; 14-3-3β 9.76563e-7 M): 21 and 25 and 23 | FP signal (14-3-3β/p53 peptide; 14-3-3β 1.95313e-6 M): 20 and 22 and 21 | FP signal (14-3-3β/p53 peptide; 14-3-3β 3.90625e-6 M): 21 and 20 | FP signal (14-3-3β/p53 peptide; 14-3-3β 7.8125e-6 M): 24 and 20 and 21 | FP signal (14-3-3β/p53 peptide; 14-3-3β 1.5625e-5 M): 17 and 22 and 25 | FP signal (14-3-3β/p53 peptide; 14-3-3β 3.125e-5 M): 26 and 24 and 29 | FP signal (14-3-3β/p53 peptide; 14-3-3β 6.25e-5 M): 31 and 32 and 34 | FP signal (14-3-3β/p53 peptide; 14-3-3β 0.000125 M): 44 and 45 and 48 | FP signal (14-3-3β/p53 peptide; 14-3-3β 0.00025 M): 66 and 67 and 63

C=CC(C)(C)OC[C@H]1O[C@H](O[C@@H]2C3=C([C@H](C)COC(C)=O)C[C@H](O)[C@]3(C)/C=C3/[C@@H](COC)CC[C@H]3[C@@H](C)[C@H]2O)[C@H](O)[C@@H](OC(C)=O)[C@@H]1O [FC-A, fusicoccin A, reference compound]
Polarization, Everage no 14-3-3 ([1]; average of no 14-3-3 wells): 22.00 | Polarization, no 14-3-3 ([1]; no 14-3-3, peptide 100 nM, replicates, listed as FC): 23 and 21 and 22
